Experimental data taken from US20140303242A1, “Sparstolonin B Based Pharmaceutical Agent to Treat Pathological Angiogensis” (University of South Carolina, priority 2013, published 2014).

Columns and labels:
Type in all cases: cell-based, human
HUVECs [1] = assay: Matrigel tube formation assay (HUVECs); conditions: concentrations between 1 and 100 μM, 4 h, p<0.05
Procedure: (§1) To initially determine if SsnB inhibited pro-angiogenic cell functions, a tube formation assay with Matrigel was performed. Growth factor reduced Matrigel (BD Biosciences, Bedford, Mass.) was added to the wells of a 96 well polystyrene culture plate and incubated at 37° C. for 30 minutes. Cells (HUVECs, HCAECs, or HMVECs at passage 2 to 4) were added to each well to reach a final number of 20,000 cells per well. SsnB was added to the wells at a concentration of 1, 10, or 100 μM. Endothelial cell medium with DMSO (0.1%) was used as a vehicle control. Each group contained 4 replicates. The plates were placed in an incubator for 4 h. During the incubation, the endothelial cells formed elongated structures called cords, also known as tubes. After 4 h, neutral buffered formalin was added to fix the cells. Pictures of three non-overlapping fields were taken from each well. The lengths of single cell endothelial cords were measured with Image-Pro Plus (Media Cybernetics, Silver Spring, Md.), and the sum of tube lengths for each well was determined. The average total length and standard deviation for each group were determined, and the appropriate statistical tests (ANOVA and Newman-Keuls) were completed. The tube formation assay was replicated three times for both HUVECs and HCAECs. The assay was also repeated with cardiac HMVECs.

HCAECs = assay: Matrigel tube formation assay (HCAECs); conditions: between 1 and 100 μM, 4 h
Procedure: as §1

HUVECs [2] = assay: Transwell insert cell migration assay (VEGF-induced); conditions: 8 h
Procedure: The cell invasion assay was performed with a Transwell insert system (6.5 mm diameter inserts with 8.0 μm pores in a polycarbonate membrane situated in wells of 24 well polystrene, tissue culture treated plates, Corning Incorporated, Corning, N.Y.). The Transwell inserts were coated with 0.1% gelatin for 30 min and incubated in low serum medium for 1 h. Cultured HUVECs were trypsinized and then resuspended in low serum medium (0.5% fetal bovine serum without endothelial cell mitogen), and added at 50,000 cells per insert. The cells were allowed to adhere to the inserts for 30 min. Next, various concentrations of SsnB (0.0001, 0.001, 0.01, 0.1, 1, 10, and 100 μM) or vehicle control (0.1% DMSO) were added to the Transwell inserts. After 30 min, the medium in the lower chamber for the experimental groups was replaced with low serum medium containing 10 ng/ml VEGF and thus establishing a chemoattractant gradient between the top insert and lower chamber. For the negative control group, the medium was replaced with low serum medium (0.5% fetal bovine serum). The plates were incubated for 8 h at 37° C. During the incubation, the cells migrated through the pores of the Transwell insert towards the lower chamber. […] Cells were counted from four random fields observed with a 10× objective lens. […]

O=c1occ2c3c(ccc(O)c13)Oc1ccc(O)cc1-2 [SsnB, Sparstolonin B]
HUVEC tube formation (HUVECs [1]): dose-dependent inhibition
HCAEC tube formation on Matrigel (HCAECs): dose-dependent inhibition
VEGF-induced cell migration inhibition, high concentrations (HUVECs [2]; between 0.1 and 100 μM): leveled off
VEGF-induced cell migration (HUVECs [2]; concentrations between 0.0001 and 0.1 μM, p<0.05): dose-dependent inhibition
